Results taken from patent US20050043378A1, “LTA4H modulators” (priority 2003, published 2005).
Counter-ions that a name gives are not always drawn. Like-named read-outs stand apart in the source and are kept apart here.

What was measured:
[1] = tested on: neutrophil influx (myeloperoxidase, MPO); test: Murine arachidonic acid-induced inflammation model: neutrophil influx (myeloperoxidase activity in ear biopsies); format: in vivo, female Balb/c mice; conditions: Mus musculus, read-out: % Inh. MPO
[2] = tested on: LTB4 production by calcium ionophore-stimulated murine blood; test: LTB4 production by calcium ionophore-stimulated murine blood for LTA4H inhibitor activity; format: cell-based, CD-1 mice
[3] = tested on: ex vivo stimulated LTB4 production in blood; test: Murine arachidonic acid-induced inflammation model: ex vivo stimulated LTB4 production; set-up: species or system female Balb/c mice; conditions: Mus musculus, read-out: % Inh. LTB4
[4] = biological target: T1, recombinant human LTA4 hydrolase (rhLTA4H) (Homo sapiens, UniProt P09960); test: Recombinant human LTA4 hydrolase assay for LTA4 hydrolase inhibitor activity; format: biochemical; conditions: LTA4 substrate, LTB4 by immunoassay, average of one to three determinations;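 also: enzyme expressed in Sf-9 insect cells, compound preincubated 10 min with enzyme, 10 min reaction at room temperature, uninhibited reaction as positive control, enzyme-free blank as negative control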
T1 construct: made in house; host or cells: Spodoptera frugiperda (Sf-9) cells, baculovirus (pFastBac1)
T1 sequence (P09960 1-611): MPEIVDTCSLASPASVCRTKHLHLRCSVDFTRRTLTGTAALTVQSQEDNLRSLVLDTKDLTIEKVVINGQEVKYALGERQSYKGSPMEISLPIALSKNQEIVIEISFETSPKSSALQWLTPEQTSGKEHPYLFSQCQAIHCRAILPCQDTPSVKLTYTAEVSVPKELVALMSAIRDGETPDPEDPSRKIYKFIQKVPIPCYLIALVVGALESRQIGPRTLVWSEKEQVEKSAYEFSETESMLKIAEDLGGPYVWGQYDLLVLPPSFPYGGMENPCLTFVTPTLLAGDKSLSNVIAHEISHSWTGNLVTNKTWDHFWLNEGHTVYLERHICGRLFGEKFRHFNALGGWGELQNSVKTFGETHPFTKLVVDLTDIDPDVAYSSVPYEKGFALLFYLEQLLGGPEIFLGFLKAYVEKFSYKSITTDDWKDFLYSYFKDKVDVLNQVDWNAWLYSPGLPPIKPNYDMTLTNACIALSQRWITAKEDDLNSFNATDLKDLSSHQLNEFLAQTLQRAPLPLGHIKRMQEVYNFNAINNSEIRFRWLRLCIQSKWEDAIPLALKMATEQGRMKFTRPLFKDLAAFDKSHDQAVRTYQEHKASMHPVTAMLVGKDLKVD

[5] = tested on: ionophore-induced LTB4 production in rat peritoneum; conditions: oral administration; cited from earlier work
[6] = tested on: ionophore-induced LTB4 production in mouse blood; conditions: oral administration; cited from earlier work
[7] = tested on: colitis symptoms; conditions: eight weeks of treatment, cotton top tamarins; cited from earlier work
[8] = 30 mg/kg oral gavage 60 min before topical arachidonic acid to ear, ear biopsies after 3 h, vs animals without inhibitor
[9] = 30 mg/kg oral gavage, blood taken 3 h after arachidonic acid, ex vivo A23187 stimulation, vs animals without inhibitor
[10] = diluted CD-1 mouse whole blood, A23187 stimulation, LTB4 by immunoassay, read-out: IC50

IC50 [4]	IC50 [2, 10]	Structure (SMILES)	inhibition in vivo at 30 mg/kg [1, 8]	IC50 ([2]; Mus musculus)	inhibition at 30 mg/kg [3, 9]	inhibition in vivo at 30 mg/kg ([1]; po, 3 h)	inhibition at 30 mg/kg ([3]; po, 3 h)	inhibition of ionophore-induced LTB4 production in rat peritoneum in vivo [5]	inhibition of ionophore-induced LTB4 production in mouse blood ex vivo [6]	colitis symptoms [7]
		OC1CCN(CCOc2ccc(Oc3nc4ccccc4o3)cc2)CC1 [Example 14, 1-{2-[4-(Benzooxazol-2-yloxy)-phenoxy]-ethyl}-piperidin-4-ol]	56%	89 nM	81%					
1 nM	52 nM	O=C(O)C1CCN(CCc2ccc(Oc3nc4ccccc4s3)cc2)CC1 [Example 150, 1-{2-[4-(Benzothiazol-2-yloxy)-phenyl]-ethyl}-piperidine-4-carboxylic acid]	91%		81%					
9 nM	127 nM	O=C(O)C1CCCN(CCc2ccc(Oc3nc4ccccc4s3)cc2)C1 (stereo not shown) [Example 155, 1-{2-[4-(Benzothiazol-2-yloxy)-phenyl]-ethyl}-piperidine-3-carboxylic acid]	93%		96%					
2 nM	15 nM	O=C(O)CCN(CCc1ccc(Oc2nc3ccccc3s2)cc1)CC1CC1 [Example 180, 3-({2-[4-(Benzothiazol-2-yloxy)-phenyl]-ethyl}-cyclopropylmethyl-amino)-propionic acid]	87%		87%					
4 nM	43 nM	c1ccc2sc(Oc3ccc(OCCn4nnnc4C4CCNCC4)cc3)nc2c1 [Example 206, 2-{4-[2-(5-Piperidin-4-yl-tetrazol-1-yl)-ethoxy]-phenoxy}-benzothiazole]	76%		67%					
5 nM	49 nM	OCC1CCCCN1CCOc1ccc(Oc2nc3ccccc3s2)cc1 (stereo not shown) [Example 263, (1-{2-[4-(Benzothiazol-2-yloxy)-phenoxy]-ethyl}-piperidin-2-yl)-methanol]	19%		0%					
		NC(=O)C1CCN(Cc2ccc(Oc3nc4ccccc4s3)cc2)CC1 [Example 274, 1-[4-(Benzothiazol-2-yloxy)-benzyl]-piperidine-4-carboxylic acid amide]	87%		93%					
12 nM		O=C(CO)N1CCN(CCc2ccc(Oc3nc4ccccc4s3)cc2)CC1 [Example 325, 1-(4-{2-[4-(Benzothiazol-2-yloxy)-phenyl]-ethyl}-piperazin-1-yl)-2-hydroxy-ethanone]	67%		76%					
24 nM	153 nM	O=C1C[C@H](O)CN1C1CCN(CCc2ccc(Oc3nc4ccccc4s3)cc2)CC1 [Example 336, (S)-1-(1-{2-[4-(Benzothiazol-2-yloxy)-phenyl]-ethyl}-piperidin-4-yl)-4-hydroxy-pyrrolidin-2-one]	0%		67%					
33 nM	246 nM	OCC1CCN(Cc2ccc(Oc3nc4ccccc4s3)cc2)CC1 [Example 360, {1-[4-(Benzothiazol-2-yloxy)-benzyl]-piperidin-4-yl}-methanol]	88%		87%					
8 nM		CS(=O)(=O)NC1CCN(Cc2ccc(Oc3nc4ccccc4s3)cc2)CC1 [Example 361, N-{1-[4-(Benzothiazol-2-yloxy)-benzyl]-piperidin-4-yl}-methanesulfonamide]	90%		86%					
8 nM	131 nM	O=C1C[C@@H](O)CN1C1CCN(Cc2ccc(Oc3nc4ccccc4s3)cc2)CC1 [Example 446, 1-{1-[4-(Benzothiazol-2-yloxy)-benzyl]-piperidin-4-yl}-4-hydroxy-pyrrolidin-2-one]	43%		64%					
28 nM	240 nM	O=C1C[C@H](O)CN1C1CCN(Cc2ccc(Oc3nc4ccccc4s3)cc2)CC1 [Example 447, 1-{1-[4-(Benzothiazol-2-yloxy)-benzyl]-piperidin-4-yl}-4-hydroxy-pyrrolidin-2-one]	48%		90%					
19 nM		CC(=O)N(C)C1CCN(Cc2ccc(Oc3nc4ccccc4s3)cc2)CC1 [Example 471, N-{1-[4-(Benzothiazol-2-yloxy)-benzyl]-piperidin-4-yl}-N-methyl-acetamide]	89%		90%					
		CN(CCCOc1ccc(Cc2ccccc2)cc1)CCC(=O)O.Cl [SC57461]						caused inhibition of ionophore-induced LTB4 production	caused inhibition of ionophore-induced LTB4 production	significantly improved colitis symptoms

Structure (SMILES)	IC50 [4]	IC50 [2, 10]	inhibition in vivo at 30 mg/kg [1, 8]	IC50 ([2]; Mus musculus)	inhibition at 30 mg/kg [3, 9]	inhibition in vivo at 30 mg/kg ([1]; po, 3 h)	inhibition at 30 mg/kg ([3]; po, 3 h)	inhibition of ionophore-induced LTB4 production in rat peritoneum in vivo [5]	inhibition of ionophore-induced LTB4 production in mouse blood ex vivo [6]	colitis symptoms [7]
O=C(O)C1CCN(CCOc2ccc(Oc3nc4ccccc4s3)cc2)CC1 [Example 18, 1-{2-[4-(Benzothiazol-2-yloxy)-phenoxy]-ethyl}-piperidine-4-carboxylic acid potassium salt]	6 nM			162 nM		83%	78%			
OC1(c2ccccc2)CCN(CCCOc2ccc(Oc3nc4ccccc4o3)cc2)CC1 [Example 27, 1-{3-[4-(Benzooxazol-2-yloxy)-phenoxy]-propyl}-4-phenyl-piperidin-4-ol]	7 nM		72%	143 nM			50%			
